Test [1] addresses T1, human dopamine D2L receptors (long isoform) (Homo sapiens, UniProt P14416).
T1 construct: expressed in transfected cells; host or cells: HEK-293
The test is described as follows: Dopamine D2L receptor binding, [125I] iodospiperone displacement. As to conditions: selectivity ratio of receptor binding constants, D2L versus D3. The procedure: (§1) The substance to be tested was either dissolved in methanol/Chremophor® (BASF-AG) or in dimethyl sulfoxide and then diluted with water to the desired concentration.
(§2) Each assay mixture was run in triplicate.
The incubation buffer contained 50 mM tris, 120 mM NaCl, 5 mM KCl, 2 mM CaCl2, 2 mM MgCl2 and 0.1% bovine serum albumin. The buffer was adjusted to pH 7.4 with HCl.
(§3) After having been incubated at 25° C. for 60 minutes, the assay mixtures were filtered through a Whatman GF/B glass fiber filter under vacuum using a cell collecting device. The filters were transferred to scintillation viols using a filter transfer system. After 4 ml of Ultima Gold® (Packard) have been added, the samples were shaken for one hour and the radioactivity was then counted in a Beta-Counter (Packard, Tricarb 2000 or 2200CA). The cpm values were converted into dpm using a standard quench series and the program belonging to the instrument.
(§4) The inhibition curves were analyzed by means of iterative nonlinear regression analysis using the Statistical Analysis System (SAS) which is similar to the “LIGAND” program described by Munson and Rodbard.

Test [2] concerns the target T2, human dopamine D3 receptors (Homo sapiens, UniProt P35462).
T2 construct: expressed in transfected cells; host or cells: HEK-293
The test is described as follows: Dopamine D3 receptor binding, [125I]-iodosulpride displacement. The following applies: membranes of HEK-293 cells expressing human D3 receptor; 0.1 nM [125I]-iodosulpride. The method, then: as §1, §2
The incubation buffer contained 50 mM tris, 120 mM NaCl, 5 mM KCl, 2 mM CaCl2, 2 mM MgCl2 and 0.1% bovine serum albumin, 10 μM quinolone and 0.1% ascorbic acid (prepared fresh daily). The buffer was adjusted to pH 7.4 with HCl.
as §3, §4

Where a name gives a salt, the structure may show the parent alone.

T2 sequence (P35462 whole entry): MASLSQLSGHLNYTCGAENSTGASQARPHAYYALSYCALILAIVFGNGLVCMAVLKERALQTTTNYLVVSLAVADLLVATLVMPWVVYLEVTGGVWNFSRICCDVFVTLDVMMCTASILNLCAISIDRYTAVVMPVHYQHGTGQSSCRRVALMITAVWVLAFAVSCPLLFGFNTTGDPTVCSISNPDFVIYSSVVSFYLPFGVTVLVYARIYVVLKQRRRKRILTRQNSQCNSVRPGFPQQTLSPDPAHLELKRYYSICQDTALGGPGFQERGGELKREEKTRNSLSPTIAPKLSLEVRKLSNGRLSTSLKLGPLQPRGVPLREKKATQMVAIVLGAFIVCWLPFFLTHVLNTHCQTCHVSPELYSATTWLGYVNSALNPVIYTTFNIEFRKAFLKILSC
T1 sequence (P14416 whole entry, canonical isoform): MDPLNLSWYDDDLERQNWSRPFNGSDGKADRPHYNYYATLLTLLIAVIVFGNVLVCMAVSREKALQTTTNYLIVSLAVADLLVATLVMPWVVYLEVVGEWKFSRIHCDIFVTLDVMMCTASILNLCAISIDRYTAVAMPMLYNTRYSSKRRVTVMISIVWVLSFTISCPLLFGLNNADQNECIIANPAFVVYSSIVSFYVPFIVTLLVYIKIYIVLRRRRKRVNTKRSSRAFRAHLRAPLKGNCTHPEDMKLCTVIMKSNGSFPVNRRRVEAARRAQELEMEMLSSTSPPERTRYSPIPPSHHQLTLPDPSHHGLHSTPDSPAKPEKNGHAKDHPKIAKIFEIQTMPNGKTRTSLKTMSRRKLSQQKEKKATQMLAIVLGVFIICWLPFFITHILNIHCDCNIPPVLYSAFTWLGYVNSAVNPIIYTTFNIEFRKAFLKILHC

Usually Ki stands for a measure of affinity in units of concentration, obtained from inhibition or displacement. Higher therefore signals lower affinity. With `CCCNCCOc1ccc(NS(=O)(=O)c2ccc(CCCF)cc2)c(OC)n1` [Example 1, 4-(3-Fluoro-propyl)-N-[2-methoxy-6-(2-propylamino-ethoxy)-pyridin-3-yl]-benzenesulfonamide×HCl], the “Ki(D2)*/Ki(D3)*” value in test [1] was “++ (between 50 and 100)”. For the same compound, in test [2], the Ki was less than 1 nM.
For the compound `CCCNCCOc1ccc(NS(=O)(=O)c2ccc(OC(F)(F)F)cc2)c(OC)n1.Cl` [Example 2, N-[2-Methoxy-6-(2-propylamino-ethoxy)-pyridin-3-yl]-4-trifluoromethoxy-benzenesulfonamide×HCl], the “Ki(D2)*/Ki(D3)*” value in test [1] is “+ (between 10 and 50)”. Also, in test [2], the Ki is 1 to 10 nM.
On to `CCCNCCOc1ccc(NS(=O)(=O)c2ccc(C(C)C(F)(F)F)cc2)c(OC)n1` (stereo not shown) [Example 3, N-[2-Methoxy-6-(2-propylamino-ethoxy)-pyridin-3-yl]-4-(2,2,2-trifluoro-1-methylethyl)-benzenesulfonamide×HCl], for which, in test [1], the “Ki(D2)*/Ki(D3)*” value is “++ (between 50 and 100)”. Moreover, the Ki in test [2] fell in the range of 1 to 10 nM.
Take `CCCNCCOc1ccc(NS(=O)(=O)c2ccc(C(C)C)cc2)c(OC)n1` [Example 4, 4-Isopropyl-N-[2-methoxy-6-(2-propylamino-ethoxy)-pyridin-3-yl]-benzenesulfonamide×HCl]: in test [1], the “Ki(D2)*/Ki(D3)*” value is “++ (between 50 and 100)”. Further, in test [2], the Ki was less than 1 nM.
Consider `CCCNCCOc1ccc(NS(=O)(=O)c2ccc(OC(F)F)cc2)c(OC)n1` [Example 5, 4-Difluoromethoxy-N-[2-methoxy-6-(2-propylamino-ethoxy)-pyridin-3-yl]-benzenesulfonamide×HCl], for which the “Ki(D2)*/Ki(D3)*” value in test [1] was “++ (between 50 and 100)”. In test [2], this compound had a Ki of 1 to 10 nM.
With `CCCNCCOc1ccc(NS(=O)(=O)c2ccc(CCF)cc2)c(OC)n1` [Example 6, 4-(2-Fluoro-ethyl)-N-[2-methoxy-6-(2-propylamino-ethoxy)-pyridin-3-yl]-benzenesulfonamide×HCl], the “Ki(D2)*/Ki(D3)*” value in test [1] was “++ (between 50 and 100)”. Further, the Ki in test [2] is 1 to 10 nM.
Consider `CCCNCCOc1ccc(NS(=O)(=O)c2ccc(-c3cnco3)cc2)c(OC)n1` [Example 7, N-[2-Methoxy-6-(2-propylamino-ethoxy)-pyridin-3-yl]-4-oxazol-5-yl-benzenesulfonamide×HCl], for which the “Ki(D2)*/Ki(D3)*” value in test [1] was “++++ (>150)”. Besides, the Ki in test [2] is less than 1 nM.
In the case of `CCCNCCOc1ccc(NS(=O)(=O)c2ccc(OCCF)cc2)c(OC)n1` [Example 8, 4-(2-Fluoro-ethoxy)-N-[2-methoxy-6-(2-propylamino-ethoxy)-pyridin-3-yl]-benzenesulfonamide×HCl], the “Ki(D2)*/Ki(D3)*” value in test [1] was “++++ (>150)”. The same compound displayed an inhibition constant (Ki) in test [2] of 1 to 10 nM.
With `CCCNCCOc1ccc(NS(=O)(=O)c2ccc(OCC(F)F)cc2)c(OC)n1` [Example 9, 4-(2,2-Difluoro-ethoxy)-N-[2-methoxy-6-(2-propylamino-ethoxy)-pyridin-3-yl]-benzenesulfonamid×HCl], the “Ki(D2)*/Ki(D3)*” value in test [1] was “++++ (>150)”. The Ki in test [2] fell in the range of 1 to 10 nM.
The matching figures for `CCCNCCOc1ccc(NS(=O)(=O)c2ccc(OCC(F)(F)F)cc2)c(OC)n1` [Example 10, N-[2-Methoxy-6-(2-propylamino-ethoxy)-pyridin-3-yl]-4-(2,2,2-trifluoro-ethoxy)-benzenesulfonamide×HCl]: “++++ (>150)” and 1 to 10 nM.
Regarding `CCCNCCOc1ccc(NS(=O)(=O)c2ccc([C@@H](C)CF)cc2)c(OC)n1` [Example 11, 4-((R)-2-Fluoro-1-methyl-ethyl)-N-[2-methoxy-6-(2-propylamino-ethoxy)-pyridin-3-yl]-benzenesulfonamide×HCl], in test [1], the “Ki(D2)*/Ki(D3)*” value is “++++ (>150)”. This compound showed a Ki in test [2] of less than 1 nM.
As for `COc1nc(OC2CCNC2)ccc1NS(=O)(=O)c1ccc(C(C)C)cc1` (stereo not shown) [Example 13, 4-Isopropyl-N-[2-methoxy-6-(pyrrolidin-3-yloxy)-pyridin-3-yl]-benzenesulfonamide×HCl], the “Ki(D2)*/Ki(D3)*” value in test [1] was “+ (between 10 and 50)”. In test [2], this compound displayed an inhibitory constant (Ki) of 50 to 150 nM.
Regarding `COc1nc(OCCN2CCCC2)ccc1NS(=O)(=O)c1ccc(CCCF)cc1` [Example 15, 4-(3-Fluoro-propyl)-N-[2-methoxy-6-(2-pyrrolidin-1-yl-ethoxy)-pyridin-3-yl]-benzenesulfonamide], in test [1], the “Ki(D2)*/Ki(D3)*” value was “+ (between 10 and 50)”. This compound gave an inhibition constant (Ki) in test [2] of 10 to 50 nM.
Regarding `COc1nc(OCCN2CCCC2)ccc1NS(=O)(=O)c1ccc(C(C)C)cc1` [Example 16, 4-Isopropyl-N-[2-methoxy-6-(2-pyrrolidin-1-yl-ethoxy)-pyridin-3-yl]-benzenesulfonamide×HCl], the “Ki(D2)*/Ki(D3)*” value in test [1] was “+ (between 10 and 50)”. In addition, the Ki in test [2] was 1 to 10 nM.
For `COc1nc(OCCN2CCCC2)ccc1NS(=O)(=O)c1ccc([C@@H](C)CF)cc1` [Example 17, 4-((R)-2-Fluoro-1-methyl-ethyl)-N-[2-methoxy-6-(2-pyrrolidin-1-yl-ethoxy)-pyridin-3-yl]-benzenesulfonamide], the “Ki(D2)*/Ki(D3)*” value in test [1] is “++ (between 50 and 100)”. The compound also yielded a Ki in test [2] of 1 to 10 nM.
In the case of `COc1nc(OCCN2CCCC2)ccc1NS(=O)(=O)c1ccc(C(C)C(F)(F)F)cc1` (stereo not shown) [Example 18, N-[2-Methoxy-6-(2-pyrrolidin-1-yl-ethoxy)-pyridin-3-yl]-4-(2,2,2-trifluoro-1-methyl-ethyl)-benzenesulfonamide], the “Ki(D2)*/Ki(D3)*” value in test [1] was “+ (between 10 and 50)”. In addition, the inhibition constant Ki in test [2] was 1 to 10 nM.
In the case of `COc1nc(OCCN2CCCC2)ccc1NS(=O)(=O)c1ccc(-c2cnco2)cc1` [Example 19, N-[2-Methoxy-6-(2-pyrrolidin-1-yl-ethoxy)-pyridin-3-yl]-4-oxazol-5-yl-benzenesulfonamide], in test [1], the “Ki(D2)*/Ki(D3)*” value is “+ (between 10 and 50)”. The Ki in test [2] fell in the range of 10 to 50 nM.
Consider `CCCNCCOc1ncc(NS(=O)(=O)c2ccc(C(C)C)cc2)c(OC)n1` [Example 20, 4-isopropyl-N-[4-methoxy-2-(2-propylamino-ethoxy)-pyrimidin-5-yl]-benzenesulfonamide], for which, in test [1], the “Ki(D2)*/Ki(D3)*” value is “+ (between 10 and 50)”. Moreover, the Ki in test [2] was 1 to 10 nM.
With `CCCNCCOc1ncc(NS(=O)(=O)c2ccc(OC(F)(F)F)cc2)c(OC)n1` [Example 21, N-[4-Methoxy-2-(2-propylamino-ethoxy)-pyrimidin-5-yl]-4-trifluoromethoxy-benzenesulfonamide], the “Ki(D2)*/Ki(D3)*” value in test [1] was “++ (between 50 and 100)”. Further, the Ki in test [2] lay in the range of 50 to 150 nM.
With `CC(C)c1ccc(S(=O)(=O)Nc2ccc(OCCN(C)C)nc2)cc1` [Example 22, N-[6-(2-Dimethylamino-ethoxy)-pyridin-3-yl]-4-isopropyl-benzenesulfonamide×HCl], the Ki in test [2] was in the range of 50 to 150 nM.
Take `CCCNCCOc1ccc(NS(=O)(=O)c2ccc(C(C)C)cc2)cn1` [Example 23, 4-Isopropyl-N-[6-(2-propylamino-ethoxy)-pyridin-3-yl]-benzenesulfonamide×HCl]: the “Ki(D2)*/Ki(D3)*” value in test [1] was “+ (between 10 and 50)”. This compound had a Ki in test [2] of 10 to 50 nM.
For the compound `CCCN(CCC)CCOc1ccc(NS(=O)(=O)c2ccc(C(C)C)cc2)cn1` [Example 24, N-[6-(2-Dipropylamino-ethoxy)-pyridin-3-yl]-4-isopropyl-benzenesulfonamide×HCl], the “Ki(D2)*/Ki(D3)*” value in test [1] was “++ (between 50 and 100)”. Further, the inhibition constant (Ki) in test [2] lay within 10 to 50 nM.
For `COc1nc(OC[C@H]2CCCN2)ccc1NS(=O)(=O)c1ccc(-c2cnco2)cc1` [Example 27, N-[2-Methoxy-6-((R)-1-pyrrolidin-2-ylmethoxy)-pyridin-3-yl]-4-oxazol-5-yl-benzenesulfonamide×HCl], in test [1], the “Ki(D2)*/Ki(D3)*” value is “+++ (between 100 and 150)”. For the same compound, the inhibition constant Ki in test [2] was 1 to 10 nM.
With `CCCNCCOc1ccc(NS(=O)(=O)c2ccc(C(C)C)cc2)c(C)n1` [Example 29, 4-Isopropyl-N-[2-methyl-6-(2-propylamino-ethoxy)-pyridin-3-yl]-benzenesulfonamide×HCl], the “Ki(D2)*/Ki(D3)*” value in test [1] is given as “++++ (>150)”. For the same compound, the inhibitory constant (Ki) in test [2] was less than 1 nM.
Consider `CCCNCCOc1ccc(NS(=O)(=O)c2ccc([C@@H](C)CF)cc2)c(C)n1` [Example 34, 4-((R)-2-Fluoro-1-methyl-ethyl)-N-[2-methyl-6-(2-propylamino-ethoxy)-pyridin-3-yl]-benzenesulfonamide×HCl], for which, in test [1], the “Ki(D2)*/Ki(D3)*” value is recorded as “++++ (>150)”. In test [2], this compound yielded a Ki of 1 to 10 nM.
For `CCCNCCOc1ccc(NS(=O)(=O)c2ccc(-c3cnco3)cc2)c(C)n1` [Example 36, N-[2-Methyl-6-(2-propylamino-ethoxy)-pyridin-3-yl]-4-oxazol-5-yl-benzenesulfonamide×HCl] the same measures were “++++ (>150)” and 10 to 50 nM.
As for `Cc1nc(OC[C@@H]2CCCN2)ccc1NS(=O)(=O)c1ccc(C(C)C)cc1` [Example 43, 4-Isopropyl-N-[2-methyl-6-((S)-1-pyrrolidin-2-ylmethoxy)-pyridin-3-yl]-benzenesulfonamide×HCl], the “Ki(D2)*/Ki(D3)*” value in test [1] is “+++ (between 100 and 150)”. Besides, the Ki in test [2] is 1 to 10 nM.
With `CCCNCCOc1cc(C)c(NS(=O)(=O)c2ccc([C@@H](C)CF)cc2)cn1` [Example 57, 4-((R)-2-Fluoro-1-methyl-ethyl)-N-[4-methyl-6-(2-propylamino-ethoxy)-pyridin-3-yl]-benzenesulfonamide×HCl], in test [1], the “Ki(D2)*/Ki(D3)*” value was “++ (between 50 and 100)”. For the same compound, the Ki in test [2] was in the range of 10 to 50 nM.

The values are drawn from US8383641B2, “Aryloxyethylamine compounds suitable for treating disorders that respond to modulation of the dopamine D3 receptor” (Abbott GmbH & Co. KG, priority 2006, dated 2013).
